What was measured:
ACAT [1] = assay: ACAT activity, rat liver microsomes (method of Chautan et al.); type: biochemical; details: radiolabelled precursor, cholesteryl-oléate formed quantified, read-out: microsomes CI50
Text: (§1) Les expérimentations utilisent la méthode de Chautan M. et coll., (Anal. Biochem. 1988) afin de déterminer l'activité ACAT. Les activités sont exprimées en concentrations inhibitrices à 50% (CI50), l'unité est le nM. Deux types de préparations enzymatiques ont été utilisés pour analyser l'activité putative des composés : microsomes hépatiques de rat et cellules humaines intactes HepG2. Les microsomes sont obtenus à partir de fractionnement subcellulaire utilisant une étape d'homogénéisation puis une étape d'ultracentrifugation. Le dosage de l'activité ACAT est réalisé par incubation des microsomes hépatiques ou des cellules avec le composé d'intérêt ainsi que le précurseur radiomarqué. La séparation du produit de la réaction à partir du milieu d'incubation acellulaire ou cellulaire est réalisée par élution sur colonne de silice; le cholesteryl-oléate formé est ensuite quantifié en radioanalyse.

ACAT [2] = assay: ACAT activity, intact HepG2 cells (method of Chautan et al.); type: cell-based, humaines
Text: as §1

ACAT [3] = assay: ACAT inhibition in vivo: plasma cholesterol in rats on a hypercholesterolemic diet; details: oral route, 4 days of hypercholesterolemic diet with simultaneous treatment, plasma cholesterol on day 5 (colorimetric)
Text: Les rats sont soumis à un régime alimentaire hypercholestérolémique pendant 4 jours. Les animaux sont traités simultanément par voie orale avec les différentes molécules. Le cinquième jour les animaux sont euthanasiés et la variation des taux de cholestérol plasmatique circulant analysée par méthode colorimétrique. Les activités sont exprimées en doses efficaces à 50% (DE50), l'unité est le mg/kg.

procollagène de type 1 = details: protein level and mRNA; cited from earlier work
glandes sébacées = details: primate, chronic treatment; cited from earlier work
[4] = intact human HepG2 cells; radiolabelled precursor, cholesteryl-oléate formed quantified; read-out: HepG2 CI50
[5] = read-out: HepG2 CI50; intact human HepG2 cells; radiolabelled precursor, cholesteryl-oléate formed quantified

CCCCCCCCCCCCSC(C)(C)C(=O)N1CCCCC1C(=O)Nc1cc(C)c(O)c(C)c1C (stereo not shown) [Exemple 1, 1-(2-(dodécylthio)-2-méthylpropanoyl)-N-(4-hydroxy-2,3,5-triméthyl-phényl)pipéridine-2-carboxamide]
IC50 (ACAT [1]): 47 nM | IC50 (ACAT [2]; [4]): 47 nM | Etude in vivo chez le rat DE50 (ACAT [3]): 0.63 mg/kg

CCCCCCCCCCCCSC(C)(C)C(=O)N1CCCC1C(=O)Nc1cc(C)c(O)c(C)c1C (stereo not shown) [Exemple 2, 1-(2-(dodécylthio)-2-méthylpropanoyl)-N-(4-hydroxy-2,3,5-triméthyl-phényl)-pyrrolidine-2-carboxamide]
IC50 (ACAT [1]): 81 nM | IC50 (ACAT [2]; [4]): 48 nM | Etude in vivo chez le rat DE50 (ACAT [3]): <0.63 mg/kg

CCCCCCCCCCCCSC(C)(C)C(=O)N1CCC[C@H]1C(=O)Nc1cc(C)c(O)c(C)c1C [Exemple 3, (S)-1-(2-(dodécylthio)-2-méthylpropanoyl)-N-(4-hydroxy-2,3,5-triméthyl-phényl)pyrrolidine-2-carboxamide]
IC50 (ACAT [1]): 18 nM | IC50 (ACAT [2]; [4]): 34 nM | Etude in vivo chez le rat DE50 (ACAT [3]): <0.63 mg/kg

CCCCCCCCCCSC(C)(C)C(=O)N1CCC[C@H]1C(=O)Nc1cc(C)c(O)c(C)c1C [Exemple 4, (S)-1-(2-(décylthio)-2-méthylpropanoyl)-N-(4-hydroxy-2,3,5-triméthyl-phényl)-pyrrolidine-2-carboxamide]
Etude in vivo chez le rat DE50 (ACAT [3]): 0.63 mg/kg

CCCCCCCCCCCCSC(C)(C)C(=O)N1CSC[C@H]1C(=O)Nc1cc(C)c(O)c(C)c1C [Exemple 5, (R)-3-(2-(dodécylthio)-2-méthylpropanoyl)-N-(4-hydroxy-2,3,5-triméthyl-phényl)thiazolidine-4-carboxamide]
IC50 (ACAT [1]): 34 nM | IC50 (ACAT [2]; [4]): 39 nM | Etude in vivo chez le rat DE50 (ACAT [3]): <0.63 mg/kg

CCCCCCCCCCCCSC(C(=O)Nc1cc(C)c(O)c(C)c1C)c1ccsc1 (stereo not shown) [Exemple 6, 2-(dodécylthio)-N-(4-hydroxy-2,3,5-triméthylphényl)-2-(thiophén-3-yl)acétamide]
IC50 (ACAT [1]): 71 nM | IC50 (ACAT [2]; [4]): 27 nM | Etude in vivo chez le rat DE50 (ACAT [3]): 0.17 mg/kg

CCCCCCCCCCCCSC(C(=O)Nc1c(C)c(C)c(N)c(C)c1C)c1ccsc1 (stereo not shown) [Exemple 7, chlorhydrate du N-(4-amino-2,3,5,6-tétraméthylphényl)-2-(dodécylthio)-2-(thiophén-3-yl)acétamide]
IC50 (ACAT [1]): 41 nM | IC50 (ACAT [2]; [5]): 93 nM | Etude in vivo chez le rat DE50 (ACAT [3]): 0.16 mg/kg

CCCCCCCCCCCCSC(C(=O)Nc1c(C)c(C)c(N)c(C)c1C)c1cccs1 (stereo not shown) [Exemple 8, chlorhydrate du N-(4-amino-2,3,5,6-tétraméthylphényl)-2-(dodécylthio)-2-(thiophén-2-yl)acétamide]
IC50 (ACAT [1]): 69 nM | IC50 (ACAT [2]; [5]): 38 nM | Etude in vivo chez le rat DE50 (ACAT [3]): 0.26 mg/kg

CSc1cc(C)nc(SC)c1NC(=O)CN1CCN(CCSc2nc3ccccc3[nH]2)CC1 [K-604]
procollagène de type 1 (procollagène de type 1): augmentation de procollagène de type 1

CC(C)c1cccc(C(C)C)c1NC(=O)NCC1(c2ccc(N(C)C)cc2)CCCC1.Cl [PD 132301-2]
effet secondaire sur les glandes sébacées (glandes sébacées): atrophie des glandes sébacées

CCCCCCCCN1CCc2c(C)c(CC(=O)O)c(C)c(NC(=O)C(C)(C)C)c21 [pactimibe]
procollagène de type 1 (procollagène de type 1): n'ont pas cette propriété
